Data set [1] deals with T1, Human Neuropeptide Y2 Receptor (Homo sapiens, UniProt P49146).
T1 construct: purchased CHEMICON HTS066M
T1 sequence (P49146 1-381): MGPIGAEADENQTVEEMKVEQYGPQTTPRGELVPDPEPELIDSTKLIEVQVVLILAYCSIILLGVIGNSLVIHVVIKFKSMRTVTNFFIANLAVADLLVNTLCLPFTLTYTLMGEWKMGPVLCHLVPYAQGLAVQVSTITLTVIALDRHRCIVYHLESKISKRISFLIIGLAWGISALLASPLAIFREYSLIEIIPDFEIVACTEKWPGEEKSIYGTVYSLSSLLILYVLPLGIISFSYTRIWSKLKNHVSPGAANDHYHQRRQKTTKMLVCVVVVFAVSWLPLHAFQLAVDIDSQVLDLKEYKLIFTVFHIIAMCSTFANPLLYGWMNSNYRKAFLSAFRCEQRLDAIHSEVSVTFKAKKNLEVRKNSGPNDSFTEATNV
In words: Radioligand binding competition assay (RLB). The conditions noted are these: Table 3, 125I-PYY(1-36) competition; read-out: Ki. In short, it runs like this:
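Filtration binding assay on human Y2 receptor membrane preparation, 0.5 μg protein per well, in 50 mM HEPES pH 7.4 containing 5 mM MgCl2, 1 mM CaCl2 and 0.2% ovalbumin. Plates shake 2 h at room temperature before harvest and scintillation counting.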

The nature of a further data set: Solubility determination. To be noted: for Sol6: pH 6; for Sol7: pH 7. In short, it runs like this:
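Shake-flask style: 10 mg/ml peptide (TFA salt), 0.1 M sodium diphosphate pH 6.4/7.0, 600 rpm, 2 h, RT; filter; dilute 1 mg/ml in 50% MeCN; RP-UPLC, 0–100% B over 2 min, 50 °C. Solubility = sample/control area ratio. Final pH recorded.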

Data set [2] concerns the target T2, human NPY5 receptor (hY5R) (Homo sapiens, UniProt Q15761).
T2 sequence (Q15761 1-445): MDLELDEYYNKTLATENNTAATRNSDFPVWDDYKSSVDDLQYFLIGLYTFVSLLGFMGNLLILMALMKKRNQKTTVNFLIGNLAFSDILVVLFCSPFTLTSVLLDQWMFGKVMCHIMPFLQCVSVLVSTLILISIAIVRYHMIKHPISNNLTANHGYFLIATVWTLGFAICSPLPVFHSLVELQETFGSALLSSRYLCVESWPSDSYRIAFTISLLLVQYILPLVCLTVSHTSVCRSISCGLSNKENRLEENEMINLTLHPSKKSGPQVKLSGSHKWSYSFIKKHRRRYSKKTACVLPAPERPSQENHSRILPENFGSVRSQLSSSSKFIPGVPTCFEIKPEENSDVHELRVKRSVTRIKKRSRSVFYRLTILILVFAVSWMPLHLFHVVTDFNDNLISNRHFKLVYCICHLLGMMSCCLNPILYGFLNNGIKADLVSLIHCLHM
In words: HTRF cAMP Gi assay, hY5R.
Protocol: Briefly, the production of intracellular cAMP will generate a competition between unlabeled cAMP and exogenously added d2-cAMP for anti-cAMP antibodies conjugated to cryptate. CHO-K1 cells stably expressing the human NPY1, NPY2, NPY4 and NPY5 receptors were used with the cells brought to life from a frozen stock immediately before assay performance. 2000 cells per well were applied for all four NPY receptor subtype assays. A 384-well format was used applying a total volume of 20 μl using 5 μl cells, 2.5 μl peptide agonist, 2.5 μl forskolin and 5 μl of each of the fluorophores. […] Concentration-response evaluation of compounds was performed with 11 concentrations of agonist peptides (covering 3 decades). EC50 values were calculated by nonlinear regression using sigmoid concentration-response with variable slope.

*1 amine or outer side, *2 acyl side, *3 side chain or, on linkers, in order; H or OH if unused. Where a SMILES comes first, the peptide text is derived from it. Side-chain parts run from the residue outwards. The star is where a group is joined. C18 diacid = O=C(O)CCCCCCCCCCCCCCCCC(=O)*; γGlu = O=C(O)[C@H](CCC(=O)[*:2])N[*:1]; Isovaleryl = CC(C)CC(=O)*; Ahx = NCCCCCC(=O)O

As for `CC(C)CC(=O)N[C@@H](C)C(=O)N1CCC[C@H]1C(=O)N[C@@H](CCC(=O)O)C(=O)N[C@@H](CCCCNC(=O)CCCCCNC(=O)CC[C@H](NC(=O)CCCCCCCCCCCCCCCCC(=O)O)C(=O)O)C(=O)N1CCC[C@H]1C(=O)N[C@@H](CCC(=O)O)C(=O)N[C@@H](CCC(=O)O)C(=O)N[C@@H](CC(=O)O)C(=O)N[C@@H](C)C(=O)N[C@@H](CO)C(=O)N1CCC[C@H]1C(=O)N[C@@H](CCC(=O)O)C(=O)N[C@@H](CCC(=O)O)C(=O)N[C@@H](CC(C)C)C(=O)N[C@@H](CCC(N)=O)C(=O)N[C@@H](CCC(N)=O)C(=O)N[C@@H](Cc1ccc(O)cc1)C(=O)N[C@@H](Cc1ccc(O)cc1)C(=O)N[C@H](C(=O)N[C@@H](CO)C(=O)N[C@@H](CC(C)C)C(=O)N[C@@H](CCCNC(=N)N)C(=O)N[C@@H](Cc1c[nH]cn1)C(=O)N[C@@H](Cc1ccc(O)cc1)C(=O)N[C@@H](Cc1ccc(O)cc1)C(=O)N[C@@H](Cc1c[nH]cn1)C(=O)N[C@@H](Cc1c[nH]c2ccccc12)C(=O)N[C@@H](CC(C)C)C(=O)N[C@H](C(=O)N[C@@H](CCCNC(=N)N)C(=O)N[C@@H](CCC(N)=O)C(=O)N[C@@H](CCCNC(=N)N)C(=O)N[C@@H](Cc1ccc(O)cc1)C(N)=O)[C@@H](C)O)C(C)C` [Compound 12, N{alpha-4}-(3-methylbutanoyl)-N{epsilon-7}-(6-[(4S)-4-carboxy-4-(17-carboxyheptadecanamido)butanamido]hexanoyl)[4A,7K,9E,18Q,19Q,22V,28Y,29H,30W,31L]-hPYY(4-36)] (Isovaleryl-APEK([Ahx-γGlu-C18 diacid])PEEDASPEELQQYYVSLRHYYHWLTRQRY-NH2), the inhibitory constant (Ki) in data set [1] came to 4.16 nM. In “Solubility determination”, the “Sol6” value came out at 9.4 mg/mL and the “Sol7” value was 9.8 mg/mL. Moreover, the EC50 in data set [2] was over 5000 nM.
On to `CC[C@H](C)[C@H](NC(=O)[C@H](CCC(=O)O)NC(=O)[C@H](CCC(=O)O)NC(=O)[C@@H]1CCCN1C(=O)[C@H](CO)NC(=O)[C@H](C)NC(=O)[C@H](CC(=O)O)NC(=O)[C@H](CCC(=O)O)NC(=O)[C@H](CCC(=O)O)NC(=O)[C@@H]1CCCN1C(=O)[C@H](CCCCNC(=O)CCCCCNC(=O)CC[C@H](NC(=O)CCCCCCCCCCCCCCCCC(=O)O)C(=O)O)NC(=O)[C@H](CCC(=O)O)NC(=O)[C@@H]1CCCN1C(=O)[C@H](C)NC(=O)CC(C)C)C(=O)N[C@@H](CCC(N)=O)C(=O)N[C@@H](CCC(N)=O)C(=O)N[C@@H](Cc1ccc(O)cc1)C(=O)N[C@@H](Cc1ccc(O)cc1)C(=O)N[C@H](C(=O)N[C@@H](CO)C(=O)N[C@@H](CC(C)C)C(=O)N[C@@H](CCCNC(=N)N)C(=O)N[C@@H](Cc1c[nH]cn1)C(=O)N[C@@H](Cc1ccc(O)cc1)C(=O)N[C@@H](Cc1ccc(O)cc1)C(=O)N[C@@H](CC(N)=O)C(=O)N[C@@H](Cc1c[nH]c2ccccc12)C(=O)N[C@@H](CC(C)C)C(=O)N[C@H](C(=O)N[C@@H](CCCNC(=N)N)C(=O)N[C@@H](CCC(N)=O)C(=O)N[C@@H](CCCNC(=N)N)C(=O)N[C@@H](Cc1ccc(O)cc1)C(N)=O)[C@@H](C)O)C(C)C` [Compound 15, N{alpha-4}-(3-methylbutanoyl)-N{epsilon-7}-(6-[(4S)-4-carboxy-4-(17-carboxyheptadecanamido)butanamido]hexanoyl)[4A,7K,9E,17I,18Q,19Q,22V,28Y,30W,31L]-hPYY(4-36)], for which the Ki in data set [1] came to 3.98 nM. Also, in “Solubility determination”, the “Sol6” value turned out to be 9.3 mg/mL and the “Sol7” value is 9.2 mg/mL. Besides, the EC50 in data set [2] was over 5000 nM.
On the same counts, the results for `CC(C)CC(=O)N[C@@H](C)C(=O)N1CCC[C@H]1C(=O)N[C@@H](CCC(=O)O)C(=O)N[C@@H](CCCCNC(=O)CCCCCNC(=O)CC[C@H](NC(=O)CCCCCCCCCCCCCCCCC(=O)O)C(=O)O)C(=O)N1CCC[C@H]1C(=O)N[C@@H](CCC(=O)O)C(=O)N[C@@H](CCC(=O)O)C(=O)N[C@@H](CC(=O)O)C(=O)N[C@@H](C)C(=O)N[C@H](C(=O)N1CCC[C@H]1C(=O)N[C@@H](CCC(=O)O)C(=O)N[C@@H](CCC(=O)O)C(=O)N[C@@H](CC(C)C)C(=O)N[C@@H](CCC(N)=O)C(=O)N[C@@H](CCCCN)C(=O)N[C@@H](Cc1ccc(O)cc1)C(=O)N[C@@H](Cc1ccc(O)cc1)C(=O)N[C@H](C(=O)N[C@@H](CO)C(=O)N[C@@H](CC(C)C)C(=O)N[C@@H](CCCNC(=N)N)C(=O)N[C@@H](Cc1c[nH]cn1)C(=O)N[C@@H](Cc1ccc(O)cc1)C(=O)N[C@@H](Cc1ccc(O)cc1)C(=O)N[C@@H](CC(N)=O)C(=O)N[C@@H](Cc1c[nH]c2ccccc12)C(=O)N[C@@H](CC(C)C)C(=O)N[C@H](C(=O)N[C@@H](CCCNC(=N)N)C(=O)N[C@@H](CCC(N)=O)C(=O)N[C@@H](CCCNC(=N)N)C(=O)N[C@@H](Cc1ccc(O)cc1)C(N)=O)[C@@H](C)O)C(C)C)[C@@H](C)O` [Compound 16, N{alpha-4}-(3-methylbutanoyl)-N{epsilon-7}-(6-[(4S)-4-carboxy-4-(17-carboxyheptadecanamido)butanamido]hexanoyl)[4A,7K,9E,13T,18Q,19K,22V,28Y,30W,31L]-hPYY(4-36)] are 2.81 nM, 10.0 mg/mL, 8.3 mg/mL and over 5000 nM.
Consider `CC(C)CC(=O)N[C@@H](C)C(=O)N1CCC[C@H]1C(=O)N[C@@H](CCC(=O)O)C(=O)N[C@@H](CCCCNC(=O)CCCCCNC(=O)CC[C@H](NC(=O)CCCCCCCCCCCCCCCCC(=O)O)C(=O)O)C(=O)N1CCC[C@H]1C(=O)N[C@@H](CCC(=O)O)C(=O)N[C@@H](CCC(=O)O)C(=O)N[C@@H](CCC(=O)O)C(=O)N[C@@H](C)C(=O)N[C@@H](CO)C(=O)N1CCC[C@H]1C(=O)N[C@@H](CCC(=O)O)C(=O)N[C@@H](CCC(=O)O)C(=O)N[C@@H](CC(C)C)C(=O)N[C@@H](CCC(N)=O)C(=O)N[C@@H](CCCNC(=N)N)C(=O)N[C@@H](Cc1ccc(O)cc1)C(=O)N[C@@H](Cc1ccc(O)cc1)C(=O)N[C@H](C(=O)N[C@@H](CO)C(=O)N[C@@H](CC(C)C)C(=O)N[C@@H](CCCNC(=N)N)C(=O)N[C@@H](Cc1c[nH]cn1)C(=O)N[C@@H](Cc1ccc(O)cc1)C(=O)N[C@@H](Cc1ccc(O)cc1)C(=O)N[C@@H](CC(N)=O)C(=O)N[C@@H](Cc1c[nH]c2ccccc12)C(=O)N[C@@H](CC(C)C)C(=O)N[C@H](C(=O)N[C@@H](CCCNC(=N)N)C(=O)N[C@@H](CCC(N)=O)C(=O)N[C@@H](CCCNC(=N)N)C(=O)N[C@@H](Cc1ccc(O)cc1)C(N)=O)[C@@H](C)O)C(C)C` [Compound 23, N{alpha-4}-(3-methylbutanoyl)-N{epsilon-7}-(6-[(4S)-4-carboxy-4-(17-carboxyheptadecanamido)butanamido]hexanoyl)[4A,7K,9E,11E,18Q,22V,28Y,30W,31L]-hPYY(4-36)], for which, in data set [1], the Ki came to 12.6 nM. Moreover, in the data set “Solubility determination”, the “Sol6” value was 9.8 mg/mL and the “Sol7” value was 10.0 mg/mL. Further, in data set [2], the EC50 was over 5000 nM.
Consider `CC[C@H](C)[C@H](NC(=O)[C@H](CCC(=O)O)NC(=O)[C@H](CCC(=O)O)NC(=O)[C@@H]1CCCN1C(=O)[C@H](CO)NC(=O)[C@H](C)NC(=O)[C@H](CC(=O)O)NC(=O)[C@H](CCC(=O)O)NC(=O)[C@H](CCC(=O)O)NC(=O)[C@@H]1CCCN1C(=O)[C@H](CCCCNC(=O)CCCCCNC(=O)CC[C@H](NC(=O)CCCCCCCCCCCCCCCCC(=O)O)C(=O)O)NC(=O)[C@H](CCC(=O)O)NC(=O)[C@@H]1CCCN1C(=O)[C@H](C)NC(=O)CC(C)C)C(=O)N[C@@H](CCC(N)=O)C(=O)N[C@@H](CCCNC(=N)N)C(=O)N[C@@H](Cc1ccc(O)cc1)C(=O)N[C@@H](Cc1ccc(O)cc1)C(=O)N[C@H](C(=O)N[C@@H](CCC(=O)O)C(=O)N[C@@H](CC(C)C)C(=O)N[C@@H](CCCNC(=N)N)C(=O)N[C@@H](Cc1c[nH]cn1)C(=O)N[C@@H](Cc1ccc(O)cc1)C(=O)N[C@@H](Cc1ccc(O)cc1)C(=O)N[C@@H](CC(N)=O)C(=O)N[C@@H](Cc1c[nH]c2ccccc12)C(=O)N[C@@H](CC(C)C)C(=O)N[C@H](C(=O)N[C@@H](CCCNC(=N)N)C(=O)N[C@@H](CCC(N)=O)C(=O)N[C@@H](CCCNC(=N)N)C(=O)N[C@@H](Cc1ccc(O)cc1)C(N)=O)[C@@H](C)O)C(C)C` [Compound 52, N{alpha-4}-(3-methylbutanoyl)-N{epsilon-7}-(6-[(4S)-4-carboxy-4-(17-carboxyheptadecanamido)butanamido]hexanoyl)-[4A,7K,9E,17I,18Q,22V,23E,28Y,30W,31L]-hPYY(4-36)], for which the Ki in data set [1] came out at 2.39 nM. Besides, in “Solubility determination”, the “Sol6” value was 9.5 mg/mL and the “Sol7” value turned out to be 9.5 mg/mL. In data set [2], the EC50 is over 5000 nM.

These data come from patent US12391737B2, “Soluble NPY2 receptor agonists” (Boehringer Ingelheim International GmbH, priority 2020, dated 2025).
